Earlier results on one molecule are cited in patent publication EP3263095A1, “A PHARMACEUTICAL FORMULATION OF OLAPARIB” (Zentiva K.S., priority 2016, dated 2018).

For this series the following is noted: EMA/CHMP/789139/2014.

As to `O=C(c1cc(Cc2n[nH]c(=O)c3ccccc23)ccc1F)N1CCN(C(=O)C2CC2)CC1` [olaparib, 4-[(3-[(4-cyclopropylcarbonyl)piperazin-4-yl]carbonyl)-4-fluorophenyl]methyl(2H)-phtalazin-1-one], the “Group of the Biopharmaceutical Classification System (low solubility and bioavailability)” value is listed as “Group 4”.
